Measured values taken from patent US11980674B2, “Imaging of metastatic or recurrent cancer” (Blue Earth Diagnostics Limited, priority 2020, dated 2024).

Assays:
[1] = system: known prostate carcinoma recurrence; assay: PET time activity curves (FIG. 3); format: in vivo, human; conditions: for time at which plateau was reached: remained constant throughout the imaging period
Protocol: Regions in marrow (ilium), muscle (gluteus), and bladder reached a plateau at 4.5 minutes that remained constant throughout the imaging period.

[2] = human, in vivo
Protocol: FIGS. 1a and 1b show accumulation of FACBC in the Virchow's node when the FACBC is injected into the left arm.
In some embodiments, the right arm may be preferred as stasis in the axillary vein upon injection in the left arm may be misinterpreted as a metastatic lymph node called Virchow's node, which is located in the left supraclavicular fossa (the area above the left clavicle, or collar bone). For example, FIGS. 1a and 1b show accumulation of FACBC in the Virchow's node when the FACBC is injected into the left arm.

time at which plateau was reached ([1]; bladder): 4.5 min
time of maximum uptake ([1]; known prostate carcinoma recurrence): 4.5 min
plateau of uptake lasting to ([1]; known prostate carcinoma recurrence, after maximum at 4.5 minutes): 30 min
gradual clearance ([1]; known prostate carcinoma recurrence, after plateau, out to 60 minutes): 9 %/min
time at which plateau was reached ([1]; marrow (ilium)): 4.5 min
time at which plateau was reached ([1]; muscle (gluteus)): 4.5 min
standardized uptake value (SUV) [2]: > 200
SMILES: N[C@]1(C(=O)O)C[C@@H](F)C1 [fluciclovine, anti-1-amino-3-^18F-fluorocyclobutane-1-carboxylic acid]
